Assay results reported in patent publication US20200276181A1, “THIENOISOQUINOLINES AND THEIR DERIVATIVES FOR TARGETING TUBULIN, CH-TOG, AURORA A KINASE, TPX2, CDK5RAP2 AND/OR ASPM” (VALORBEC, SEC, priority 2017, published 2020).

What was measured:
[1] = test system: MCF7, BT549, A549, HCT116, HeLa cells; experiment: Viability in cancer vs non-cancer cell lines, summary of Table 3; format: cell-based, human
Protocol: To date, 30 variants with different structural modifications have been made. […] In particular, it is shown that C75 causes death in multiple cancer cells with IC50 values in the 100-400 nM range, including breast cancers (MCF7, BT549), lung cancer (A549), colorectal cancer (HCT116) in addition to HeLa cells (cervical cancer).

[2] = test system: HFF-1 cells; experiment: Spindle phenotypes, fixed cells stained for γ-tubulin and ACA; format: cell-based; conditions: 300 nM for 4 hours
Excerpt: (§1) For each condition, 20,000 cells were counted per replicate (N=3). Line graphs (right) were made to better illustrate the relative changes in the cell cycle phases for the different treatments. Bars show standard deviation. The asterisks indicate the first statistically significant change in the G0/G1 and G2/M populations determined by a two-way ANOVA with a post-hoc Tukey's multiple comparisons test using 95% confidence intervals. FIG. 2B) is a line graph showing the percentage of HCT116 (p53−/−) cells, A549 cells, HeLa cells and H1299 cells in mitosis after treatment with various concentrations of C75 for one population doubling time. All of the cell lines show an increase in the proportion of mitotic cells after treatment with 200 nM C75. The bars indicate standard deviation. […] While the mitotic spindles were not dramatically altered by C75 in HFF1 cells, they were monopolar (as shown) or fragmented in the other cell types. […] The mitotic spindles were more strongly fragmented after C75 treatment in these cells vs. the cells in FIG. 2C). FIG. 2E) are images showing fixed HFF1, HeLa, A549 and HCT 116 cells co-stained for γ-tubulin (spindle poles; white) and ACA (centromeres; light grey) 4 hours after treatment with 300 nM C87 (control) or 300 nM C75. Cartoon schematics show examples of the different spindle phenotypes, including bipolar with aligned chromosomes (top), bipolar with misaligned chromosomes (upper middle), multipolar/fragmented (lower middle), or monopolar (bottom), and the proportion of that phenotype is shown in the top right corner of each image. FIG. 2F) is a bar graph showing the proportion of the different spindle phenotypes for HFF1, HeLa, A549 and HCT 116 cells treated as in FIG. 2E) (n=1355; N=3). Bars show standard deviation. […] While mitotic spindles recovered bipolarity after removing nocodazole, they remained multipolar after removing C75. […] FIG. 2J) is a bar graph showing the proportion of cells with monopolar (black), bipolar (dark grey) or multipolar (light grey) spindles. Bars show standard deviation. FIG. 2K) is a series of time-lapse images of a live HeLa cell expressing GFP:tubulin after treatment with C75 as shown in 2G). […] Drugs were not washed out. […]
(§2) C75 was also tested for efficacy in different cancer cell lines. […] To further assess the role of C75 in disrupting spindles, HeLa cells were treated with 300 nM C75 for 4 hours and the spindle phenotypes were analyzed in more detail (FIG. 2E). […] To assess the affect of C75 on centrosomes, HeLa cells were treated with C75 or nocodazole (a drug that causes microtubule depolymerization as a control) for a short period of time (5 minutes), then the drugs were removed and the cells were analyzed for spindle phenotypes (schematic in FIG. 2G). […]

[3] = test system: HCT116 cells; experiment: as above; format: cell-based; conditions: 300 nM for 4 hours
Excerpt: as §1, §2

[4] = test system: HCT116 cells; experiment: Mitotic arrest after one population doubling time; format: cell-based; conditions: HCT116, most responsive
Excerpt: For each condition, 20,000 cells were counted per replicate (N=3). Line graphs (right) were made to better illustrate the relative changes in the cell cycle phases for the different treatments. Bars show standard deviation. The asterisks indicate the first statistically significant change in the G0/G1 and G2/M populations determined by a two-way ANOVA with a post-hoc Tukey's multiple comparisons test using 95% confidence intervals. FIG. 2B) is a line graph showing the percentage of HCT116 (p53−/−) cells, A549 cells, HeLa cells and H1299 cells in mitosis after treatment with various concentrations of C75 for one population doubling time. All of the cell lines show an increase in the proportion of mitotic cells after treatment with 200 nM C75. The bars indicate standard deviation. […]
as §2

[5] = biological target: Purified free alpha and beta tubulin dimers (Homo sapiens, UniProt P07437+Q71U36); experiment: Microtubule polymerization in vitro; format: biochemical; conditions: 35 minutes at 37° C., Mg2+ and GTP, 20% glycerol buffer
Protocol: FIG. 10 is a graph showing microtubule polymerization in vitro in the presence of 200 nM C75 or DMSO (control). Bars show SEM. Microtubules fail to polymerize in the presence of C75, but not in control samples, showing that tubulin could be a target of C75 in vitro.
Purified free alpha and beta tubulin dimers were added at a concentration of […] to a 20% glycerol buffer and allowed to polymerize in the presence of Mg^2+ and GTP for 35 minutes at 37° C. While DMSO had no effect on microtubule polymerization, 200 nM of C75 prevented polymerization. […] This supports that C75 binds tubulin at a different site compared to other microtubule-depolymerizing drugs.

[6] = test system: A549 cells; experiment: IC50 of derivatives (Table 5); format: cell-based, human; conditions: Homo sapiens; Table 5; cell line only named in b213 (A549)
[7] = test system: HeLa cells; experiment: Spindle phenotypes, fixed cells stained for γ-tubulin and ACA; format: cell-based, human; conditions: 300 nM for 4 hours
Excerpt: as §1, §2

[8] = test system: A549 cells; experiment: as above; format: cell-based, human; conditions: 300 nM for 4 hours
Excerpt: as §1, §2

[9] = test system: HeLa cells with lower levels of endogenous ch-TOG (ch-TOG RNAi); experiment: Spindle phenotypes with ch-TOG RNAi; format: cell-based, human; conditions: 200 nM C75 or 20 nM colchicine
Excerpt: FIG. 7B) is a bar graph showing the proportion of phenotypes of the HeLa cells observed in the different conditions listed in 7A) (bipolar spindles in light grey; bipolar spindles with misaligned chromosomes in dark grey; multipolar/fragmented spindles in hatched lines; monopolar spindles in black).

SMILES: COc1ccc(S(=O)(=O)N2Cc3ccccc3-c3sc(Br)cc32)cc1 [Compound C75]
- efficacy (effect on viability) in cancer cells vs. non-cancer cells [1]: higher efficacy
- IC50 ([1]; Homo sapiens, MCF7, BT549, A549, HCT116, HeLa, read-out: IC50 values in multiple cancer cells): 100 to 400 nM
- cells with bipolar spindles with aligned chromosomes [2]: 88%
- cells with bipolar spindles with misaligned chromosomes [3]: 22%
- cells with monopolar spindles [3]: 35%
- cells with multipolar or fragmented spindles [3]: 13%
- concentration at which mitotic cells increase [4]: 100 nM
- concentration that prevented microtubule polymerization [5]: 200 nM
- IC50 [6]: 431 nM
- cells with bipolar spindles with misaligned chromosomes [7]: 41%
- cells with multipolar or fragmented spindles [7]: 31%
- cells with bipolar spindles with misaligned chromosomes [8]: 17%
- cells with multipolar or fragmented spindles [8]: 78%
- interaction with ch-TOG RNAi, fragmented spindle phenotype [9]: additive effect
